Broadly, the melting point is the temperature of the solid-liquid transition. Regarding `CN(Cc1cc2ccccc2n1C)C(=O)/C=C/c1ccc(NC(=O)CCC(N)=O)nc1`, the melting point lay within 225 to 227 °C.
As to `CN(Cc1cc2ccccc2n1C)C(=O)/C=C/c1ccc(NC(=O)CCC(=O)N2CCOCC2)nc1`, the melting point was 206 to 209 °C (dec.).
As for `CN(Cc1cc2ccccc2n1C)C(=O)/C=C/c1ccc(N2C(=O)CCC2=O)nc1`, the figure is 185 to 187 °C.
